Measured values as given in US12139499B2, “Heteroaryl compounds for treating Huntington's disease” (PTC THERAPEUTICS, INC., priority 2018, dated 2024).

Test system: Endogenous Huntingtin Protein
Experiment: Endogenous Huntingtin Protein Assay (ELISA-based MSD electrochemiluminescence)
Format: cell-based
Conditions: Table 1
In short: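 Sandwich MSD electrochemiluminescence immunoassay. Capture used MW1 (expanded polyglutamine) or MAB2166 antibody coated at 1 μg/mL overnight at 4 °C. Samples were bound overnight at 4 °C, then a rabbit monoclonal detection antibody and SULFO-TAG anti-rabbit, each at 0.25 μg/mL, were applied for 1 h at room temperature.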

CN(c1nc2nnc(-c3ccc(-c4cn[nH]c4)cc3O)cc2s1)[C@@H]1CCCNC1 [Compound 348, 2-(6-{methyl[(3R)-piperidin-3-yl]amino}[1,3]thiazolo[4,5-c]pyridazin-3-yl)-5-(1H-pyrazol-4-yl)phenol] gave an IC50 of 100 to 500 nM.

In the case of CN(c1nc2nnc(-c3ccc(-c4cn[nH]c4)cc3O)cc2s1)[C@H]1CCCNC1 [Compound 349, 2-(6-{methyl[(3S)-piperidin-3-yl]amino}[1,3]thiazolo[4,5-c]pyridazin-3-yl)-5-(1H-pyrazol-4-yl)phenol], the IC50 is reported as no more than 100 nM.

Work on CNC1CC(N(C)c2nc3nnc(-c4ccc(-c5cn[nH]c5)cc4O)cc3s2)C1 (stereo not drawn) [Compound 350, 2-(6-{methyl[3-(methylamino)cyclobutyl]amino}[1,3]thiazolo[4,5-c]pyridazin-3-yl)-5-(1H-pyrazol-4-yl)phenol] yielded an IC50 of 100 to 500 nM.

CN(C)[C@H]1CC[C@H](N(C)c2nc3nnc(-c4ccc(-c5cn[nH]c5)cc4O)cc3s2)CC1 [Compound 351, 2-(6-{[(1r,4r)-4-(dimethylamino)cyclohexyl](methyl)amino][1,3]thiazolo[4,5-c]pyridazin-3-yl)-5-(1H-pyrazol-4-yl)phenol] gave an IC50 of 1000 to 3000 nM.

CN1CCC[C@H](N(C)c2nc3nnc(-c4ccc(-c5cn[nH]c5)cc4O)cc3s2)C1 [Compound 352, 2-(6-{methyl[(3S)-1-methylpiperidin-3-yl]amino}[1,3]thiazolo[4,5-c]pyridazin-3-yl)-5-(1H-pyrazol-4-yl)phenol] showed an IC50 of no more than 100 nM.

For CN(c1nc2nnc(-c3ccc(-c4cn[nH]c4)cc3O)cc2s1)C1CNC1 [Compound 353, 2-{6-[(azetidin-3-yl)(methyl)amino][1,3]thiazolo[4,5-c]pyridazin-3-yl}-5-(1H-pyrazol-4-yl)phenol], the IC50 was 100 to 500 nM.

Oc1cc(-c2cn[nH]c2)ccc1-c1cc2sc(N3CCC34CCNCC4)nc2nn1 [Compound 354, 2-[6-(1,7-diazaspiro[3.5]nonan-1-yl)[1,3]thiazolo[4,5-c]pyridazin-3-yl]-5-(1H-pyrazol-4-yl)phenol] gave an IC50 of no more than 100 nM.

Work on CN(c1nc2nnc(-c3ccc(-c4cn[nH]c4)cc3O)cc2s1)C1CCNCC1(C)C (stereo not drawn) [Compound 355, 2-{6-[(3,3-dimethylpiperidin-4-yl)(methyl)amino][1,3]thiazolo[4,5-c]pyridazin-3-yl}-5-(1H-pyrazol-4-yl)phenol] yielded an IC50 of no more than 100 nM.

For CN(c1nc2nnc(-c3ccc(-c4cn[nH]c4)cc3O)cc2s1)C1CC2(CNC2)C1 [Compound 356, 2-{6-[(2-azaspiro[3.3]heptan-6-yl)(methyl)amino][1,3]thiazolo[4,5-c]pyridazin-3-yl}-5-(1H-pyrazol-4-yl)phenol], the IC50 was 100 to 500 nM.

Work on Oc1cc(-c2cn[nH]c2)ccc1-c1cc2sc(NC3CCNCC3)nc2nn1 [Compound 357, 2-{6-[(piperidin-4-yl)amino][1,3]thiazolo[4,5-c]pyridazin-3-yl)-5-(1H-pyrazol-4-yl)phenol] yielded an IC50 of 100 to 500 nM.

CN(c1nc2nnc(-c3ccc(-c4cn[nH]c4)cc3O)cc2s1)[C@H]1CCNC[C@H]1F [Compound 358, 2-(6-{[(3R,4S)-3-fluoropiperidin-4-yl](methyl)amino}[1,3]thiazolo[4,5-c]pyridazin-3-yl)-5-(1H-pyrazol-4-yl)phenol] was tested, and the IC50 was 500 to 1000 nM.

Compound Cc1nc2c(C)cc(-c3cc(F)c4nc([C@H]5C[C@@H](C)N[C@@H](C)C5)sc4c3)nc2o1 [Compound 359, 5-{2-[(2R,4r,6S)-2,6-dimethylpiperidin-4-yl]-4-fluoro-1,3-benzothiazol-6-yl}-2,7-dimethyl[1,3]oxazolo[5,4-b]pyridine] has an IC50 of no more than 100 nM.

Compound CN[C@H]1C[C@@H](N(C)c2nc3nnc(-c4ccc(-c5cn[nH]c5)cc4O)cc3s2)C1 [Compound 361, 2-(6-{methyl[(1s,3s)-3-(methylamino)cyclobutyl]amino}[1,3]thiazolo[4,5-c]pyridazin-3-yl)-5-(1H-pyrazol-4-yl)phenol] has an IC50 of 100 to 500 nM.

For Oc1cc(-c2cn[nH]c2)ccc1-c1cc2sc(N3CC[C@H]4CCNC[C@H]43)nc2nn1 [Compound 362, 2-{6-[(3aR,7aS)-octahydro-1H-pyrrolo[2,3-c]pyridin-1-yl][1,3]thiazolo[4,5-c]pyridazin-3-yl}-5-(1H-pyrazol-4-yl)phenol], the IC50 was no more than 100 nM.

In the case of Oc1cc(-c2cn[nH]c2)ccc1-c1cc2sc(N3CCC34CCCNC4)nc2nn1 (stereo not drawn) [Compound 363, 2-[6-(1,6-diazaspiro[3.5]nonan-1-yl)[1,3]thiazolo[4,5-c]pyridazin-3-yl]-5-(1H-pyrazol-4-yl)phenol], the IC50 is reported as no more than 100 nM.

CN(C)[C@H]1C[C@@H](N(C)c2nc3nnc(-c4ccc(-c5cn[nH]c5)cc4O)cc3s2)C1 [Compound 364, 2-(6-{[(1s,3s)-3-(dimethylamino)cyclobutyl](methyl)amino}[1,3]thiazolo[4,5-c]pyridazin-3-yl)-5-(1H-pyrazol-4-yl)phenol] gave an IC50 of 1000 to 3000 nM.

CN(c1nc2nnc(-c3ccc(-c4cn[nH]c4)cc3O)cc2s1)[C@@H]1CCNC[C@H]1F [Compound 365, 2-(6-{[(3R,4R)-3-fluoropiperidin-4-yl](methyl)amino}[1,3]thiazolo[4,5-c]pyridazin-3-yl)-5-(1H-pyrazol-4-yl)phenol] showed an IC50 of 100 to 500 nM.

For CN1CCC(Nc2nc3nnc(-c4ccc(-c5cn[nH]c5)cc4O)cc3s2)CC1 [Compound 366, 2-{6-[(1-methylpiperidin-4-yl)amino][1,3]thiazolo[4,5-c]pyridazin-3-yl}-5-(1H-pyrazol-4-yl)phenol], the IC50 was no more than 100 nM.

Oc1cc(-c2cn[nH]c2)ccc1-c1cc2sc(NC3CCNC3)nc2nn1 (stereo not drawn) [Compound 367, 5-(1H-pyrazol-4-yl)-2-{6-[(pyrrolidin-3-yl)amino][1,3]thiazolo[4,5-c]pyridazin-3-yl}phenol] was tested, and the IC50 was 100 to 500 nM.

With Oc1cc(-c2c[nH]nc2F)ccc1-c1cc2sc(N3CC4(CNC4)C3)nc2nn1 [Compound 368, 2-[6-(2,6-diazaspiro[3.3]heptan-2-yl)[1,3]thiazolo[4,5-c]pyridazin-3-yl]-5-(3-fluoro-1H-pyrazol-4-yl)phenol] the IC50 was 100 to 500 nM.

CN1CC[C@@H]2CCN(c3nc4nnc(-c5ccc(-c6cn[nH]c6)cc5O)cc4s3)[C@@H]2C1 [Compound 369, 2-{6-[(3aR,7aS)-6-methyloctahydro-1H-pyrrolo[2,3-c]pyridin-1-yl][1,3]thiazolo[4,5-c]pyridazin-3-yl}-5-(1H-pyrazol-4-yl)phenol] showed an IC50 of 100 to 500 nM.

For CN1CCCC2(CCN2c2nc3nnc(-c4ccc(-c5cn[nH]c5)cc4O)cc3s2)C1 (stereo not drawn) [Compound 370, 2-[6-(6-methyl-1,6-diazaspiro[3.5]nonan-1-yl)[1,3]thiazolo[4,5-c]pyridazin-3-yl]-5-(1H-pyrazol-4-yl)phenol], the IC50 was no more than 100 nM.

CN(c1nc2nnc(-c3ccc(-c4cn[nH]c4)cc3O)cc2s1)[C@H]1CCN[C@H](CO)C1 [Compound 371, 2-(6-{[(2S,4S)-2-(hydroxymethyl)piperidin-4-yl](methyl)amino}[1,3]thiazolo[4,5-c]pyridazin-3-yl)-5-(1H-pyrazol-4-yl)phenol] gave an IC50 of no more than 100 nM.

In the case of CN1CC[C@H](N(C)c2nc3nnc(-c4ccc(-c5cn[nH]c5)cc4O)cc3s2)C[C@H]1CO [Compound 372, 2-(6-{[(2S,4S)-2-(hydroxymethyl)-1-methylpiperidin-4-yl](methyl)amino}[1,3]thiazolo[4,5-c]pyridazin-3-yl)-5-(1H-pyrazol-4-yl)phenol], the IC50 is reported as no more than 100 nM.

For CN1CCC(Nc2nc3nnc(-c4ccc(-c5cn[nH]c5)cc4O)cc3s2)C1 (stereo not drawn) [Compound 373, 2-{6-[(1-methylpyrrolidin-3-yl)amino][1,3]thiazolo[4,5-c]pyridazin-3-yl}-5-(1H-pyrazol-4-yl)phenol], the IC50 was no more than 100 nM.

With CN(c1nc2nnc(-c3ccc(-c4cn[nH]c4)cc3O)cc2s1)C1CCNC1 (stereo not drawn) [Compound 374, 2-{6-[methyl(pyrrolidin-3-yl)amino][1,3]thiazolo[4,5-c]pyridazin-3-yl}-5-(1H-pyrazol-4-yl)phenol] the IC50 was no more than 100 nM.

Work on CN1CCC(N(C)c2nc3nnc(-c4ccc(-c5cn[nH]c5)cc4O)cc3s2)C1 (stereo not drawn) [Compound 375, 2-{6-[methyl(1-methylpyrrolidin-3-yl)amino][1,3]thiazolo[4,5-c]pyridazin-3-yl}-5-(1H-pyrazol-4-yl)phenol] yielded an IC50 of no more than 100 nM.

CN[C@H]1C[C@H](N(C)c2nc3nnc(-c4ccc(-c5cn[nH]c5)cc4O)cc3s2)C1 [Compound 376, 2-(6-{methyl[(1r,3r)-3-(methylamino)cyclobutyl]amino}[1,3]thiazolo[4,5-c]pyridazin-3-yl)-5-(1H-pyrazol-4-yl)phenol] was tested, and the IC50 was 100 to 500 nM.

With CC1CC(N(C)c2nc3cnc(-c4cc(C#N)c5nn(C)cc5c4)cc3s2)CCN1C (stereo not drawn) [Compound 377, 5-{2-[(1,2-dimethylpiperidin-4-yl)(methyl)amino][1,3]thiazolo[4,5-c]pyridin-6-yl}-2-methyl-2H-indazole-7-carbonitrile] the IC50 was 100 to 500 nM.

CC1CC(N(C)c2nc3cnc(-c4cc(F)c5nn(C)cc5c4)cc3s2)CCN1C (stereo not drawn) [Compound 378, N-(1,2-dimethylpiperidin-4-yl)-6-(7-fluoro-2-methyl-2H-indazol-5-yl)-N-methyl[1,3]thiazolo[4,5-c]pyridin-2-amine] showed an IC50 of 100 to 500 nM.

Cc1cn2cc(-c3cc4sc(N(C)C5CCN(C)C(C)C5)nc4cn3)cc(C#N)c2n1 (stereo not drawn) [Compound 379, 6-{2-[(1,2-dimethylpiperidin-4-yl)(methyl)amino][1,3]thiazolo[4,5-c]pyridin-6-yl}-2-methylimidazo[1,2-a]pyridine-8-carbonitrile] was tested, and the IC50 was no more than 100 nM.

With Cc1cn2cc(-c3cc4sc(N(C)C5CCN(C)C(C)C5)nc4cn3)cc(F)c2n1 (stereo not drawn) [Compound 380, N-(1,2-dimethylpiperidin-4-yl)-6-(8-fluoro-2-methylimidazo[1,2-a]pyridin-6-yl)-N-methyl[1,3]thiazolo[4,5-c]pyridin-2-amine] the IC50 was 100 to 500 nM.

In the case of CN(c1nc2nnc(-c3ccc(-c4cn[nH]c4)cc3O)cc2s1)[C@H]1CNC[C@@H]1F [Compound 381, 2-(6-{[(3S,4S)-4-fluoropyrrolidin-3-yl](methyl)amino}[1,3]thiazolo[4,5-c]pyridazin-3-yl)-5-(1H-pyrazol-4-yl)phenol], the IC50 is reported as 100 to 500 nM.
